According to publication doi:10.1101/2025.04.13.648610v1, “Catalytic Mechanism and Differential Alarmone Regulation of a Conserved Stringent Nucleosidase” (biorxiv, 2025):
Numbering of substitutions follows the chain as printed.

Assays:
Format in all cases: binding
[1] = biological target: T1, PpnN (previously YgdH) (Escherichia coli, UniProt P0ADR8); assay: X-ray crystal structure
T1 construct: full length, N-terminal His6 tag, plasmid pCA24N-ppnN, expressed in E. coli BL21(DE3) ppnN::kan; homotetramer; domains PAG1 1-150, catalytic 151-329, PAG2 330-454
T1 sequence (P0ADR8 1-454): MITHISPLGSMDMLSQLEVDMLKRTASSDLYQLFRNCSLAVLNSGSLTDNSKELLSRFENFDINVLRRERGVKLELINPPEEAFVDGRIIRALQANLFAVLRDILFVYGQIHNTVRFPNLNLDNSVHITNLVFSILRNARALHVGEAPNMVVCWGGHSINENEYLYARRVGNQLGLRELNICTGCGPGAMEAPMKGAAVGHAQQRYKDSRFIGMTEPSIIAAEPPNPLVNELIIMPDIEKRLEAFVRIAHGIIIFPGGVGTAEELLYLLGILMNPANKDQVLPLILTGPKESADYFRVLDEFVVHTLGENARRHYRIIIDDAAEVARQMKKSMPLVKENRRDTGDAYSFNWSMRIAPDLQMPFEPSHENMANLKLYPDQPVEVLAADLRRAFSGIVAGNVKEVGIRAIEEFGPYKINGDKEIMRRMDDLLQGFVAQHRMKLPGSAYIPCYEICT

[2] = biological target: T2, PpnN (previously YgdH) (Escherichia coli, UniProt P0ADR8, E264A); assay: X-ray crystal structure […] Å
T2 construct: full length, N-terminal His6 tag, plasmid pCA24N-ppnN, expressed in E. coli BL21(DE3) ppnN::kan; homotetramer; domains PAG1 1-150, catalytic 151-329, PAG2 330-454
T2 sequence (P0ADR8 1-454 E264A): T1 sequence (P0ADR8 1-454) with E264A

[3] = biological target: T1, PpnN (previously YgdH); assay: X-ray crystal structure […] Å

With `Nc1nc2[nH]cnc2c(=O)[nH]1` [guanine] the X-ray crystal structure ([1]; active sites of the three open monomers, carried over, GMP not added, modelled into density) was “guanine into the smaller densities”.
For `Nc1nc2c(ncn2[C@@H]2O[C@H](COP(=O)(O)OP(=O)(O)OP(=O)(O)O)[C@@H](OP(=O)(O)OP(=O)(O)O)[C@H]2O)c(=O)[nH]1` [pppGpp], the X-ray crystal structure ([1]; allosteric alarmone site at dimer interface, three of four sites) was “pppGpp was bound to three out of four PpnN molecules” and the “X-ray crystal structure 3.5 Å” value ([2]; allosteric alarmone site at dimer interface, four of four sites, co-crystallised with GMP) was “all four alarmone sites are occupied by pppGpp”.
In the case of `O=P(O)(O)OC[C@H]1OC(O)[C@H](O)[C@@H]1O` (stereo partly shown) [ribose 5-phosphate], the X-ray crystal structure ([1]; active site of the partially open monomer, carried over, GMP not added, modelled into density) is reported as “ribose-5-phosphate (R5P) into the bilobed density” and the “X-ray crystal structure 3.5 Å” value ([2]; active site, four of four, from GMP added to the crystallisation) is reported as “likely corresponding to the product, R5P”.
In the case of `Nc1nc2c(ncn2[C@@H]2O[C@H](COP(=O)(O)OP(=O)(O)O)[C@@H](OP(=O)(O)OP(=O)(O)O)[C@H]2O)c(=O)[nH]1` [ppGpp], the “X-ray crystal structure 3.4 Å” value ([3]; allosteric alarmone site at dimer interface, four of four sites, with 9-deaza-GMP) is reported as “All four canonical alarmone binding sites are occupied by ppGpp”.
With `Nc1nc2c([C@@H]3O[C@H](COP(=O)(O)O)[C@@H](O)[C@H]3O)c[nH]c2c(=O)[nH]1` [9-deaza-GMP] the “X-ray crystal structure 3.4 Å” value ([3]; second dimer interface (two sites per tetramer), not the active site, with ppGpp) was “an elongated electron density was found into which 9dG could be modelled”.
